Experimental data reported in BigSolDB 2.1.

CC(C)C[C@H](N)C(=O)O
solubility (mole fraction)
Conditions | 283.15 K | 288.15 K | 293.15 K | 298.15 K | 303.15 K | 308.15 K | 313.15 K | 318.15 K | 323.15 K | 328.15 K
in 1,4-dioxane | – | 3.61e-05 | 5.3e-05 | 7.25e-05 | 9.39e-05 | 0.000122 | 0.000149 | 0.00019 | 0.000238 | 0.000309
in acetone | 3.16e-05 | 4.52e-05 | 6.31e-05 | 8.39e-05 | 0.00011 | 0.000145 | 0.000179 | 0.000218 | 0.000269 | –
in acetonitrile | 3.87e-05 | 4.44e-05 | 5.02e-05 | 5.71e-05 | 6.68e-05 | 7.59e-05 | 8.6e-05 | 0.000102 | 0.000123 | –
in ethanol | 0.000146 | 0.00015 | 0.000156 | 0.000171 | 0.00019 | 0.000206 | 0.000221 | 0.000286 | 0.00034 | –
in ethyl acetate | 0.000156 | 0.000169 | 0.000197 | 0.000222 | 0.00026 | 0.000303 | 0.000341 | 0.000396 | 0.000449 | –
in isobutanol | 0.000152 | 0.000157 | 0.000162 | 0.000175 | 0.000201 | 0.000228 | 0.000254 | 0.000304 | 0.00035 | –
in isopropanol | 0.000156 | 0.00016 | 0.000173 | 0.000187 | 0.000212 | 0.000254 | 0.000271 | 0.000318 | 0.000368 | –
in methanol | 0.000558 | 0.000588 | 0.000655 | 0.000686 | 0.000744 | 0.000817 | 0.000896 | 0.001 | 0.00118 | –
in methyl acetate | 0.000158 | 0.000162 | 0.000168 | 0.000178 | 0.000192 | 0.000211 | 0.000227 | 0.000254 | 0.000287 | –
in n-butanol | 2.59e-05 | 2.78e-05 | 4.16e-05 | 5.42e-05 | 7.83e-05 | 0.000103 | 0.000129 | 0.000171 | 0.000215 | –
in n-propanol | 9.7e-05 | 0.000107 | 0.000123 | 0.000142 | 0.000163 | 0.000187 | 0.000217 | 0.00026 | 0.000316 | –
in water | 0.00322 | 0.00326 | 0.00331 | 0.00339 | 0.00348 | 0.00358 | 0.00374 | 0.00385 | 0.00404 | –
